Assay results taken from the CheMixHub viscosity set.
± gives the uncertainty stated by the source.

Assay: xn = mol fraction of the nth substance listed

CCN(CC)S(C)(=O)=O + CCCCO
303.15 K, 101.33 kPa
Conditions | viscosity [mPa·s]
x1 = 0.0631 | 20450 ± 2300
x1 = 0.1404 | 19420 ± 2100
x1 = 0.2197 | 19180 ± 2100
x1 = 0.2937 | 19420 ± 2100
x1 = 0.3626 | 19850 ± 2200
x1 = 0.4515 | 20780 ± 2300
x1 = 0.5227 | 21750 ± 2400
x1 = 0.6053 | 23400 ± 2600
x1 = 0.6908 | 25500 ± 2900
x1 = 0.7579 | 27420 ± 3200
x1 = 0.8437 | 30890 ± 3700
x1 = 0.9281 | 35520 ± 4400

CCN(CC)CCO + NCCO
Conditions | viscosity [mPa·s]
293.15 K, 101 kPa, x2 = 0.9 | 22.75 ± 4.6

CC(C)CC(C)O (stereo unspecified) + CCO
298.15 K, 101.33 kPa
Conditions | viscosity [mPa·s]
x2 = 0.1103 | 3.682 ± 0.029
x2 = 0.2012 | 3.495 ± 0.028
x2 = 0.3207 | 3.131 ± 0.025
x2 = 0.4152 | 2.817 ± 0.022
x2 = 0.5152 | 2.487 ± 0.02
x2 = 0.6098 | 2.16 ± 0.017
x2 = 0.7078 | 1.883 ± 0.015
x2 = 0.8008 | 1.6 ± 0.013
x2 = 0.8981 | 1.342 ± 0.011

C[N+](C)(C)CCC[n+]1ccccc1.N#C[N-]C#N.N#C[N-]C#N + CC#N
100 kPa
Conditions | viscosity [mPa·s]
293.15 K, x1 = 0.1999 | 10.75 ± 1.1
298.15 K, x1 = 0.0999 | 3.205 ± 0.32
298.15 K, x1 = 0.1999 | 9.545 ± 0.96
298.15 K, x1 = 0.4999 | 98.11 ± 10
308.15 K, x1 = 0.2998 | 20.95 ± 2.1
313.15 K, x1 = 0.2998 | 18.15 ± 1.8
318.15 K, x1 = 0.7998 | 117.5 ± 12

CCCCCCCO + CCCCCCC
viscosity [mPa·s], 101.33 kPa
Conditions | 298.15 K | 303.15 K | 308.15 K | 313.15 K
x1 = 0.0373 | – | 0.402 ± 0.0047 | – | 0.3519 ± 0.0045
x1 = 0.0508 | 0.4239 ± 0.0039 | – | 0.3784 ± 0.0036 | –
x1 = 0.1004 | 0.4638 ± 0.0042 | – | 0.4111 ± 0.0038 | –
x1 = 0.104 | – | 0.469 ± 0.0051 | – | 0.4152 ± 0.0048
x1 = 0.1707 | – | 0.543 ± 0.0055 | – | 0.4918 ± 0.0052
x1 = 0.2012 | 0.5765 ± 0.0051 | – | 0.5039 ± 0.0045 | –
x1 = 0.2845 | – | 0.703 ± 0.0066 | – | 0.6087 ± 0.0059
x1 = 0.3013 | 0.7282 ± 0.0063 | – | 0.6241 ± 0.0055 | –
x1 = 0.4001 | 0.946 ± 0.0081 | – | 0.7914 ± 0.0068 | –
x1 = 0.4114 | – | 0.901 ± 0.0082 | – | 0.7971 ± 0.0072
x1 = 0.4992 | 1.243 ± 0.011 | – | 1.023 ± 0.0086 | –
x1 = 0.5113 | – | 1.21 ± 0.011 | – | 0.9558 ± 0.0088
x1 = 0.5981 | 1.702 ± 0.015 | – | 1.346 ± 0.011 | –
x1 = 0.62 | – | 1.671 ± 0.015 | – | 1.318 ± 0.013
x1 = 0.699 | 2.261 ± 0.02 | – | 1.821 ± 0.015 | –
x1 = 0.7301 | – | 2.236 ± 0.021 | – | 1.681 ± 0.016
x1 = 0.8089 | – | 2.801 ± 0.026 | – | 2.082 ± 0.021
x1 = 0.85 | 3.616 ± 0.034 | – | 2.806 ± 0.025 | –
x1 = 0.9029 | – | 3.742 ± 0.035 | – | 2.728 ± 0.028
x1 = 0.9456 | 4.749 ± 0.046 | – | 3.608 ± 0.033 | –
x1 = 0.9699 | – | 4.553 ± 0.042 | – | 3.322 ± 0.035
